The values that follow come from US12018059B2, “Human amylin analog polypeptides and methods of use” (Intarcia Therapeutics, Inc., priority 2018, dated 2024).

Starred links: 1 amine or outer side, 2 acyl side, 3 side chain; linkers in the order of their positions; H or OH if unused. Positions of bridges follow the written chain, without caps; N, C: chain ends. Non-standard residues stand in square brackets, D forms with d. Residues, ends and D or L forms follow the SMILES beside them. Groups on a side chain read outwards from the residue. *: point of attachment. X4 = CCCCCCCCCCCCCCCC(=O)N[C@@H](CCC(=O)NCOCCOCC(=O)NCOCCOCC(=O)*)C(=O)O; γGlu = O=C(O)[C@H](CCC(=O)[*:2])N[*:1]; Stearoyl = CCCCCCCCCCCCCCCCCC(=O)*; Palmitoyl = CCCCCCCCCCCCCCCC(=O)*

The data set can be described thus: in vivo. To be noted: rat, iv, 0.033 mg/kg. Also on record: species or system Sprague-Dawley rats. As to the method:
Peptides were dissolved in sterile saline and administered as a 1-hour intravenous infusion to non-fasted male Sprague-Dawley rats (n=3 per group) via femoral vein cannula at a final dose of 0.033 mg/kg. […] Blood samples (approximately 250 μL) were collected for pharmacokinetic analysis via a jugular vein cannula at 0.25, 0.5, 0.75, 1, 1.17, 1.33, 1.5, 2, 4, 6, 8, 24, 30 and 48 hr post-start of infusion into microtainer tubes containing K2EDTA as anticoagulant and 25 μL of a protease inhibitor cocktail. Plasma was prepared by centrifugation and stored at −80° C. until analysis. The results of this analysis are shown in Table 9 and few exemplars in FIGS. 3a-3b. […]
A 60 μL aliquot of each plasma sample was placed into to a 96-well plate. To each well was added 6 μL of 0.5% Tween-20. Plates were then vortexed mixed for 10 minutes at 1200 rpm before 180 μL of 0.1% TFA in 2:1 ethanol:acetonitrile containing an appropriate internal standard was added to each well. Plates were vortex mixed for 5 min at 1300 rpm, and then centrifuged for 10 min at 2844×g. Supernatants (180 μL) were placed into a clean 96-well plate and evaporated under a nitrogen stream at 45° C. Residues were reconstituted in 80 μL of 20% acetonitrile (aq) containing 0.1% formic acid.
A […] aliquot of each plasma sample was diluted with […] of 10 mM ammonium acetate (pH 6.8) containing an appropriate internal standard and loaded onto an Oasis WCX microElution plate (Waters Corporation, Milford, MA) that had been pre-conditioned with […] of methanol and […] of deionized water. Samples were washed with […] of 5% ammonium hydroxide (aq) followed by […] of 20% acetonitrile in water. The analyte was eluted with […] of 5% formic acid in 75:25 acetonitrile:water. The eluent was dried under a nitrogen stream. Residues were reconstituted in 80 μL of 20% acetonitrile (aq) containing 0.1% formic acid.
All calibration standards were prepared in control rat plasma containing K2EDTA and protease inhibitor cocktail.
Samples and standards were analyzed by TurbolonSpray™ UPLC-MS/MS using a system consisting of a CTC HTS PAL auto-injector (Leap, Carrboro, NC), an Agilent Infinity 1290 system with column oven (Palo Alto, CA), a Valco switching valve (Houston, TX), and either an AB Sciex API 5600 TripleTOF™ or Sciex API 4000QTrap mass spectrometer (Framingham, MA). Samples were injected onto a 2.1×50 mm reverse phase C18 analytical column, typically a Waters CORTECS UPLC C18+, 1.6 μm (Waters Corporation, Milford, MA) or similar. […] Initial conditions consisted of 90% A and 10% B. The organic component was increased to 95% B over a period of 3-4 minutes, depending on the peptide. Typical flow rates were 600 μL/min. The column temperature was held constant at 40 or 50° C. Peptides were quantified by monitoring one or more product ions produced from a multiply charged parent ion.
As a reminder, the Vd is a proportionality between amount in the body and measured concentration, not a real space. Low values mean little distribution into tissue, high ones wide distribution into tissue. A word on the clearance: it is the rate of elimination divided by the concentration. Higher therefore signals efficient removal. The term half-life denotes the time needed for the level to fall by half in the phase considered. Low readings indicate fast loss, high ones slow loss. Take `CCCCCCCCCCCCCCCC(=O)NCC(=O)N[C@@H](CCC(=O)N[C@@H](CCC(=O)NCCCC[C@@H](NC(=O)[C@H](CCC(=O)O)NC(=O)[C@H](CC(N)=O)NC(=O)[C@H](C)NC(=O)[C@H](CC(C)C)NC(=O)[C@H](CCCNC(=N)N)NC(=O)[C@H](CCC(N)=O)NC(=O)[C@@H](NC(=O)[C@H](C)NC(=O)[C@@H]1CSSC[C@H](NC(=O)[C@@H](N)CO)C(=O)N[C@@H](CC(N)=O)C(=O)N[C@@H]([C@@H](C)O)C(=O)N[C@@H](CO)C(=O)N[C@@H]([C@@H](C)O)C(=O)N1)[C@@H](C)O)C(=O)N[C@@H](Cc1c[nH]cn1)C(=O)N[C@@H](CCCCN)C(=O)N[C@@H](CO)C(=O)N[C@@H](CO)C(=O)N[C@@H](CC(N)=O)C(=O)N[C@@H](CC(N)=O)C(=O)N[C@@H](Cc1ccccc1)C(=O)NCC(=O)N1CCC[C@H]1C(=O)N[C@H](C(=O)N[C@@H](CC(C)C)C(=O)N1CCC[C@H]1C(=O)N1CCC[C@H]1C(=O)N[C@H](C(=O)N[C@@H](CCCCN)C(=O)N[C@H](C(=O)NCC(=O)N[C@@H](CO)C(=O)N[C@@H](CCC(=O)O)C(=O)N[C@H](C(=O)N[C@@H](Cc1ccc(O)cc1)C(N)=O)[C@@H](C)O)C(C)C)[C@@H](C)O)[C@@H](C)CC)C(=O)O)C(=O)O` [Compound A39] (H-SCNTSTCATQRLANE[dK]([γGlu-γGlu-Gly-Palmitoyl])HKSSNNFGPILPPTKVGSETY-NH2; disulfide 2-7): the Vd came out at 0.502 L/kg, the clearance amounted to 0.081 L/h/kg and the half-life was 4.85 h.

For `CCCCCCCCCCCCCCCC(=O)N[C@@H](CCC(=O)NCCCC[C@H](NC(=O)[C@H](CC(N)=O)NC(=O)[C@H](C)NC(=O)[C@H](CC(C)C)NC(=O)[C@H](CCCNC(=N)N)NC(=O)[C@H](CCC(N)=O)NC(=O)[C@@H](NC(=O)[C@H](C)NC(=O)[C@@H]1CSSC[C@H](NC(=O)[C@@H](N)CO)C(=O)N[C@@H](CC(N)=O)C(=O)N[C@@H]([C@@H](C)O)C(=O)N[C@@H](CO)C(=O)N[C@@H]([C@@H](C)O)C(=O)N1)[C@@H](C)O)C(=O)N[C@@H](CC(C)C)C(=O)N[C@@H](Cc1c[nH]cn1)C(=O)N[C@@H](CCCCN)C(=O)N[C@@H](CO)C(=O)N[C@@H](CO)C(=O)N[C@@H](CC(N)=O)C(=O)N[C@@H](CC(N)=O)C(=O)N[C@@H](Cc1ccccc1)C(=O)NCC(=O)N1CCC[C@H]1C(=O)N[C@H](C(=O)N[C@@H](CC(C)C)C(=O)N1CCC[C@H]1C(=O)N1CCC[C@H]1C(=O)N[C@H](C(=O)N[C@@H](CCCCN)C(=O)N[C@H](C(=O)NCC(=O)N[C@@H](CO)C(=O)N[C@@H](CCC(=O)O)C(=O)N[C@H](C(=O)N[C@@H](Cc1ccc(O)cc1)C(N)=O)[C@@H](C)O)C(C)C)[C@@H](C)O)[C@@H](C)CC)C(=O)O` [Compound A42] (H-SCNTSTCATQRLANK([γGlu-Palmitoyl])LHKSSNNFGPILPPTKVGSETY-NH2; disulfide 2-7), the Vd amounted to 0.552 L/kg, the clearance turned out to be 1.42 L/h/kg and the half-life is 0.391 h.

With `CCCCCCCCCCCCCCCC(=O)N[C@@H](CCC(=O)N[C@@H](CCC(=O)N[C@@H](CCC(=O)NCCCC[C@@H](NC(=O)[C@H](CCC(=O)O)NC(=O)[C@H](CC(N)=O)NC(=O)[C@H](C)NC(=O)[C@H](CC(C)C)NC(=O)[C@H](CCCNC(=N)N)NC(=O)[C@H](CCC(N)=O)NC(=O)[C@@H](NC(=O)[C@H](C)NC(=O)[C@@H]1CSSC[C@H](NC(=O)[C@@H](N)CO)C(=O)N[C@@H](CC(N)=O)C(=O)N[C@@H]([C@@H](C)O)C(=O)N[C@@H](CO)C(=O)N[C@@H]([C@@H](C)O)C(=O)N1)[C@@H](C)O)C(=O)N[C@@H](Cc1c[nH]cn1)C(=O)N[C@@H](CCCCN)C(=O)N[C@@H](CO)C(=O)N[C@@H](CO)C(=O)N[C@@H](CC(N)=O)C(=O)N[C@@H](CC(N)=O)C(=O)N[C@@H](Cc1ccccc1)C(=O)NCC(=O)N1CCC[C@H]1C(=O)N[C@H](C(=O)N[C@@H](CC(C)C)C(=O)N1CCC[C@H]1C(=O)N1CCC[C@H]1C(=O)N[C@H](C(=O)N[C@@H](CCCCN)C(=O)N[C@H](C(=O)NCC(=O)N[C@@H](CO)C(=O)N[C@@H](CCC(=O)O)C(=O)N[C@H](C(=O)N[C@@H](Cc1ccc(O)cc1)C(N)=O)[C@@H](C)O)C(C)C)[C@@H](C)O)[C@@H](C)CC)C(=O)O)C(=O)O)C(=O)O` [Compound A53] (H-SCNTSTCATQRLANE[dK]([γGlu-γGlu-γGlu-Palmitoyl])HKSSNNFGPILPPTKVGSETY-NH2; disulfide 2-7), the Vd is 0.174 L/kg, the clearance is 0.0287 L/h/kg and the half-life was 5.16 h.

In turn, `CCCCCCCCCCCCCCCCCC(=O)N[C@@H](CCC(=O)N[C@@H](CCC(=O)NCCCC[C@@H](NC(=O)[C@H](CCC(=O)O)NC(=O)[C@H](CC(N)=O)NC(=O)[C@H](C)NC(=O)[C@H](CC(C)C)NC(=O)[C@H](CCCNC(=N)N)NC(=O)[C@H](CCC(N)=O)NC(=O)[C@@H](NC(=O)[C@H](C)NC(=O)[C@@H]1CSSC[C@H](NC(=O)[C@@H](N)CO)C(=O)N[C@@H](CC(N)=O)C(=O)N[C@@H]([C@@H](C)O)C(=O)N[C@@H](CO)C(=O)N[C@@H]([C@@H](C)O)C(=O)N1)[C@@H](C)O)C(=O)N[C@@H](Cc1c[nH]cn1)C(=O)N[C@@H](CCCCN)C(=O)N[C@@H](CO)C(=O)N[C@@H](CO)C(=O)N[C@@H](CC(N)=O)C(=O)N[C@@H](CC(N)=O)C(=O)N[C@@H](Cc1ccccc1)C(=O)NCC(=O)N1CCC[C@H]1C(=O)N[C@H](C(=O)N[C@@H](CC(C)C)C(=O)N1CCC[C@H]1C(=O)N1CCC[C@H]1C(=O)N[C@H](C(=O)N[C@@H](CCCCN)C(=O)N[C@H](C(=O)NCC(=O)N[C@@H](CO)C(=O)N[C@@H](CCC(=O)O)C(=O)N[C@H](C(=O)N[C@@H](Cc1ccc(O)cc1)C(N)=O)[C@@H](C)O)C(C)C)[C@@H](C)O)[C@@H](C)CC)C(=O)O)C(=O)O` [Compound A56] (H-SCNTSTCATQRLANE[dK]([γGlu-γGlu-Stearoyl])HKSSNNFGPILPPTKVGSETY-NH2; disulfide 2-7) showed a Vd of 0.469 L/kg, a clearance of 0.0804 L/h/kg and a half-life of 4.29 h.

Compound `CCCCCCCCCCCCCCCC(=O)N[C@@H](CCC(=O)NCOCCOCC(=O)NCOCCOCC(=O)N[C@@H](CCC(=O)NCCCC[C@H](NC(=O)[C@H](CCC(=O)O)NC(=O)[C@H](CC(N)=O)NC(=O)[C@H](C)NC(=O)[C@H](CC(C)C)NC(=O)[C@H](CCCNC(=N)N)NC(=O)[C@H](CCC(N)=O)NC(=O)[C@@H](NC(=O)[C@H](C)NC(=O)[C@@H]1CSSC[C@H](NC(=O)[C@@H](N)CO)C(=O)N[C@@H](CC(N)=O)C(=O)N[C@@H]([C@@H](C)O)C(=O)N[C@@H](CO)C(=O)N[C@@H]([C@@H](C)O)C(=O)N1)[C@@H](C)O)C(=O)N[C@@H](Cc1c[nH]cn1)C(=O)N[C@@H](CCCCN)C(=O)N[C@@H](CO)C(=O)N[C@@H](CO)C(=O)N[C@@H](CC(N)=O)C(=O)N[C@@H](CC(N)=O)C(=O)N[C@@H](Cc1ccccc1)C(=O)NCC(=O)N1CCC[C@H]1C(=O)N[C@H](C(=O)N[C@@H](CC(C)C)C(=O)N1CCC[C@H]1C(=O)N1CCC[C@H]1C(=O)N[C@H](C(=O)N[C@@H](CCCCN)C(=O)N[C@H](C(=O)NCC(=O)N[C@@H](CO)C(=O)N[C@@H](CCC(=O)O)C(=O)N[C@H](C(=O)N[C@@H](Cc1ccc(O)cc1)C(N)=O)[C@@H](C)O)C(C)C)[C@@H](C)O)[C@@H](C)CC)C(=O)O)C(=O)O` [Compound A63] (H-SCNTSTCATQRLANEK([γGlu-X4])HKSSNNFGPILPPTKVGSETY-NH2; disulfide 2-7; N-terminus assumed) gave a Vd of 0.54 L/kg, a clearance of 0.16 L/h/kg and a half-life of 2.81 h.
